{"source": "patent US9265748B2", "about": "“Anhydrous and hemihydrate crystalline forms of an (R)-baclofen prodrug, methods of synthesis and methods of use” (XenoPort, Inc., priority 2011, dated 2016)", "key": {"[1]": {"system": "retching and vomiting induced by morphine", "details": "Suzuki et al.; cited from earlier work"}, "[2]": {"system": "emesis induced by nicotine and motion", "details": "animal models (Chan et al.); cited from earlier work"}, "[3]": {"system": "allodynia and hyperalgesia", "details": "doses lower than those required to produce sedation and impairment of motor activity; cited from earlier work"}, "neuropathic pain": {"system": "neuropathic pain", "details": "intrathecal; spinal-cord injury and multiple sclerosis, painful extremity paresthesias, sympathetically maintained pain; cited from earlier work"}, "musculoskeletal pain": {"system": "musculoskeletal pain", "details": "in vivo; cited from earlier work"}, "[4]": {"test": "Dynamic vapor sorption (hygroscopicity, water content)", "format": "physicochemical", "details": "for water content at 50% relative humidity / water content at 95% relative humidity: dynamic vapor sorption", "source_text": "In certain embodiments, crystalline (3R)-4-{[(1S)-2-methyl-1-(2-methylpropanoyloxyl)propoxy]carbonylamino}-3-(4-chlorophenyl)butanoic acid hemihydrate is hygroscopic. […] In certain embodiments, crystalline (3R)-4-{[(1S)-2-methyl-1-(2-methylpropanoyloxyl)propoxy]carbonylamino}-3-(4-chlorophenyl)butanoic acid hemihydrate comprises from about 2 wt %-about 3 wt % water. In certain embodiments, crystalline (3R)-4-{[(1S)-2-methyl-1-(2-methylpropanoyloxyl)propoxy]carbonylamino}-3-(4-chlorophenyl)butanoic acid hemihydrate contains about 2.15 wt % water at 50% relative humidity as measured by dynamic vapor sorption. In certain embodiments, crystalline (3R)-4-{[(1S)-2-methyl-1-(2-methylpropanoyloxyl)propoxy]carbonylamino}-3-(4-chlorophenyl)butanoic acid hemihydrate contains about 3 wt % water at 95% relative humidity as measured by dynamic vapor sorption.\nIn certain embodiments, crystalline (3R)-4-{[(1S)-2-methyl-1-(2-methylpropanoyloxyl)propoxy]carbonylamino}-3-(4-chlorophenyl)butanoic acid anhydrate contains less than about 0.05 wt % water at 50% relative humidity as measured by dynamic vapor sorption. In certain embodiments, crystalline (3R)-4-{[(1S)-2-methyl-1-(2-methylpropanoyloxyl)propoxy]carbonylamino}-3-(4-chlorophenyl)butanoic acid anhydrate contains less than about 0.1 wt % water at 95% relative humidity as measured by dynamic vapor sorption."}, "[5]": {"test": "Thermogravimetric analysis (TG-FTIR)", "format": "physicochemical", "details": "for temperature at which thermal decomposition began slowly: TG-FTIR, 10 K/min, increased strongly above 190° C.", "method": "Thermogravimetric measurements were carried out with a Netzsch Thermo-Microbalance TG 209 coupled to a Bruker FTIR Spectrometer Vector 22. The sample was contained in sample pans with a pinhole, under a N2 atmosphere. The heating rate was set at 10 K/min. […]"}, "[6]": {"test": "Solubility in crystallization solvents", "format": "physicochemical", "source_text": "As used herein, the terms solution and suspension are used interchangeably and are meant to include embodiments in which a compound is in a solvent or solvent mixture regardless of solubility. […] In general, solvent combinations in which a compound is soluble within a first temperature range, and poorly soluble within a second temperature range, can be used in the crystallization methods disclosed herein. Mixtures of a “good” solvent and an “anti-solvent” can also be used with temperature dependent solubilization, i.e., dissolving at elevated temperature and crystallizing at room temperature. Examples of suitable “good” solvents, i.e., solvents in which (3R)-4-{[(1S)-2-methyl-1-(2-methylpropanoyloxyl)propoxy]carbonylamino}-3-(4-chlorophenyl)butanoic acid is soluble, include methanol, ethanol, isopropanol, acetone, methyl isobutyl ketone, tetrahydrofuran, 2-methyl tetrahydrofuran, 1,4-dioxane, 1,2-ethandiol, 1,2-propanediol, 2-methoxyethanol, 2-ethoxyethanol, and a mixture of any of the foregoing."}, "[7]": {"details": "dosed either orally or directly into the colon of a mammal; cited from earlier work"}, "reflux episodes": {"system": "reflux episodes", "details": "clinical trials (Castell et al.); cited from earlier work"}, "TLESRs": {"system": "TLESRs", "details": "humans; cited from earlier work"}, "substance addiction": {"system": "substance addiction", "details": "clinical trials: cocaine addiction, methamphetamine dependence, opioid dependence, alcohol craving and intake, nicotine use, drug addiction generally; cited from earlier work"}}, "data": [{"molecule": "NCC(CC(=O)O)c1ccc(Cl)cc1", "note": "(racemic) [baclofen, (±)-4-amino-3-(4-chlorophenyl)butanoic acid]", "values": [{"measurement": "effect on retching and vomiting induced by morphine", "setting": "[1]", "value": "suppress the retching and vomiting"}, {"measurement": "effect on emesis induced by nicotine and motion", "setting": "[2]", "value": "antagonize emesis"}, {"measurement": "effect on allodynia and hyperalgesia", "setting": "[3]", "value": "inhibits allodynia and hyperalgesia"}, {"measurement": "efficacy in treating neuropathic pain", "setting": "neuropathic pain", "value": "effective"}, {"measurement": "efficacy in treating migraine, tension-type headaches, low-back pain and radiculopathy", "setting": "musculoskeletal pain", "value": "effective"}]}, {"molecule": "(3R)-4-{[(1S)-2-methyl-1-(2-methylpropanoyloxyl)propoxy]carbonylamino}-3-(4-chlorophenyl)butanoic acid hemihydrate", "values": [{"measurement": "hygroscopicity", "setting": "[4]", "value": "hygroscopic"}, {"measurement": "water content at 50% relative humidity", "setting": "[4]", "value": "about 2.15 wt %"}, {"measurement": "water content at 95% relative humidity", "setting": "[4]", "value": "about 3 wt %"}, {"measurement": "hygroscopicity above about 60% relative humidity", "setting": "[4]; above about 60% relative humidity", "value": "slightly hygroscopic"}, {"measurement": "temperature at which thermal decomposition began slowly", "setting": "[5]", "value": "about 170 °C"}, {"measurement": "weight loss up to 170° C.", "setting": "[5]; scan rate 10 K/min, N2 atmosphere, loss predominantly between 80° C. and 130° C., attributable to water", "value": "about 2.1%"}]}, {"molecule": "CC(C)C(=O)O[C@@H](OC(=O)NC[C@H](CC(=O)O)c1ccc(Cl)cc1)C(C)C", "note": "[(3R)-4-{[(1S)-2-methyl-1-(2-methylpropanoyloxyl)propoxy]carbonylamino}-3-(4-chlorophenyl)butanoic acid anhydrate]", "values": [{"measurement": "hygroscopicity", "setting": "[4]", "value": "not hygroscopic"}, {"measurement": "water content at 50% relative humidity", "setting": "[4]", "value": "less than 0.05 wt %"}, {"measurement": "water content at 95% relative humidity", "setting": "[4]", "value": "less than 0.1 wt %"}, {"measurement": "temperature at which thermal decomposition began slowly", "setting": "[5]", "value": "about 170 °C"}, {"measurement": "weight loss up to 180° C.", "setting": "[5]; scan rate 10 K/min, N2 atmosphere", "value": "very little weight loss"}]}, {"molecule": "CC(C)C(=O)O[C@@H](OC(=O)NC[C@H](CC(=O)O)c1ccc(Cl)cc1)C(C)C", "note": "[Compound 1, (3R)-4-{[(1S)-2-methyl-1-(2-methylpropanoyloxyl)propoxy]carbonylamino}-3-(4-chlorophenyl)butanoic acid]", "values": [{"measurement": "solubility in \"good\" solvents", "setting": "[6]; methanol, ethanol, isopropanol, acetone, methyl isobutyl ketone, tetrahydrofuran, 2-methyl tetrahydrofuran, 1,4-dioxane, 1,2-ethandiol, 1,2-propanediol, 2-methoxyethanol, 2-ethoxyethanol", "value": "soluble"}, {"measurement": "solubility in \"anti-solvents\"", "setting": "[6]; water, diethyl ether, diisopropyl ether, methyl t-butyl ether, toluene, chlorobenzene, alkanes, cyclohexane, methylcyclohexane", "value": "poor solubility"}, {"measurement": "bioavailability as R-baclofen", "setting": "[7]", "value": "high bioavailability"}, {"measurement": "effect on reflux episodes", "setting": "reflux episodes", "value": "reduce reflux episodes"}]}, {"molecule": "NC[C@H](CC(=O)O)c1ccc(Cl)cc1", "note": "[(R)-baclofen, (R)-4-amino-3-(4-chlorophenyl)butanoic acid]", "values": [{"measurement": "effect on TLESRs", "setting": "TLESRs", "value": "reduce TLESRs"}, {"measurement": "efficacy in treating addiction", "setting": "substance addiction", "value": "effective"}]}]}
